Test results from US10781214B2, “Kinase inhibitor against wild-type and mutant EGFR” (PRECEDO PHARMACEUTICALS CO., LTD, priority 2015, dated 2020).

Assays:
Assay type in all cases: cell-based
mouse pro-B cell BaF3 = experiment: Cell growth, Cell Titer-Glo, 72 h: BaF3; settings: BaF3 cells, 72 h, read-out: GI50
Source text: (§1) Compounds of the present invention were further evaluated for their selectivity in inhibiting proliferation of cancer cells by testing effects of the novel kinase inhibitors on proliferation of cancer cells. In the examples the following cells were selected: human non-small cell lung cancer cell NCI-H1975 (expressing EGFR L858R/T790M double-mutant gene), human-derived non-small cell lung cancer cell PC-9 (expressing EGFR delE746_A750 mutant gene), human-derived non-small cell lung cancer cell HCC827 (expressing EGFR delE746_A750 mutant gene), human lung adenocarcinoma cell HCC4006 (expressing EGFR delE746_A750 mutant gene), human non-small cell lung cancer cell NCI-H3255 (expressing EGFR L858R mutant gene), human skin squamous carcinoma cell A431 (expressing wild-type EGFR gene), human non-small cell lung cancer cell A549 (expressing wild-type EGFR gene), human non-small cell lung cancer cell NCI-H460 (expressing wild-type EGFR gene), human non-small cell lung cancer cell NCI-H2122 (expressing wild-type EGFR gene), Chinese hamster ovary (CHO) cell (Cricetulus griseus, hamster, Chinese, ovary), Chinese hamster lung cell (CHL), mouse pro-B cell BaF3. The cells above were all purchased from (USA).
(§2) The cells were incubated for 72 h, and then the number of viable cells was determined via quantitative determination with a microplate reader by using Cell Titer-Glo® (Promega, the USA) Luminescent Cell Viability Assay kit.

[1] = tested on: NCI-H3255 (expressing EGFR L858R mutant gene); experiment: Cancer cell growth, Cell Titer-Glo, 72 h: NCI-H3255; settings: Homo sapiens; NCI-H3255 cells, 72 h; read-out: GI50
Source text: as §1, §2

[2] = tested on: PC-9 (expressing EGFR delE746_A750 mutant gene); experiment: Cancer cell growth, Cell Titer-Glo, 72 h: PC-9; settings: Homo sapiens; PC-9 cells, 72 h; read-out: GI50
Source text: as §1, §2

[3] = tested on: BaF3-FL-EGFR-T790M-L858R (stably expressing EGFR T790M/L858R mutant kinase); experiment: Cell growth, Cell Titer-Glo, 72 h: BaF3-FL-EGFR-T790M-L858R; settings: Mus musculus, BaF3-FL-EGFR-T790M-L858R cells
Source text: (§3) In addition, this example further uses: mouse BaF3-TEL-EGFR (stably expressing wild-type EGFR kinase), mouse BaF3-TEL-EGFR-L858R (stably expressing EGFR L858R mutant kinase), mouse BaF3-TEL-EGFR-T790M (stably expressing EGFR T790M mutant kinase), mouse BaF3-FL-EGFR-DeI19 (stably expressing EGFR delE746_A750 mutant kinase), mouse BaF3-FL-EGFR-T790M-L858R (stably expressing EGFR T790M/L858R mutant kinase), mouse BaF3/P210 (stably expressing bcr/abl˜(P210) mutant kinase), mouse BaF3-TEL-ABL-T315I (stably expressing ABLT315I mutant kinase), mouse BaF3-FLT3-ITD (stably expressing FLT3/ITD mutant kinase), mouse BaF3-TEL-JAK2 (stably expressing JAK2 kinase), mouse BaF3-TEL-JAK3 (stably expressing JAK3 kinase), mouse BaF3-TPR-MET (stably expressing MET kinase), mouse BaF3-TEL-BLK (stably expressing BLK kinase), mouse BaF3-TEL-ABL (stably expressing ABL kinase), mouse BaF3-TEL-BMX (stably expressing BMX kinase), mouse BaF3-TEL-ALK (stably expressing ALK kinase). The above cell lines were all constructed by our laboratory according to the following method: the kinase region sequences of human […], EGFR L858R, EGFR T790M, EGFR delE746_A750, EGFR T790M/L858R, bcr/abl˜(P210), ABL T315I, FLT3/ITD, JAK2, JAK3, MET, BLK, ABL, BMX, ALK were amplified respectively by PCR, inserted respectively into MSCV-Puro vectors harboring N-terminal fragment and/or NPM fragment and/or TPR fragment (Clontech), then the vectors were stably transfected into mouse BaF3 cells by retrovirus methods and growth factor IL-3 was removed, eventually obtaining cell lines that are transferred protein (EGFR, EGFR L858R, EGFR T790M, EGFR delE746_A750, EGFR T790M/L858R, bcr/abl˜(P210), ABL T315I, FLT3/ITD, JAK2, JAK3, MET, BLK, ABL, BMX, ALK)-dependent.
as §2

[4] = tested on: BaF3-TEL-EGFR (stably expressing wild-type EGFR kinase); experiment: Cell growth, Cell Titer-Glo, 72 h: BaF3-TEL-EGFR; settings: Mus musculus, BaF3-TEL-EGFR cells, read-out: GI50
Source text: as §3, §2

[5] = tested on: NCI-H1975 (expressing EGFR L858R/T790M double-mutant gene); experiment: Cancer cell growth, Cell Titer-Glo, 72 h: NCI-H1975; settings: Homo sapiens; NCI-H1975 cells, 72 h; read-out: GI50
Source text: as §1, §2

[6] = tested on: A549 (expressing wild-type EGFR gene); experiment: Cancer cell growth, Cell Titer-Glo, 72 h: A549; settings: Homo sapiens; A549 cells, 72 h; read-out: GI50
Source text: as §1, §2

[7] = tested on: A431 (expressing wild-type EGFR gene); experiment: Cancer cell growth, Cell Titer-Glo, 72 h: A431; settings: Homo sapiens, A-431; A431 cells, 72 h; read-out: GI50
Source text: as §1, §2

Row | SMILES | GI50 (mouse pro-B cell BaF3) [nM] | GI50 [1] [nM] | GI50 [2] [nM] | GI50 [3] [nM] | GI50 [4] [nM] | GI50 [5] [nM] | GI50 [6] [nM] | GI50 [7] [nM]
1 | C=CC(=O)N1CCC[C@@H](n2nc(-c3ccc(OCc4cccc(F)c4)c(C#N)c3)c3c(N)ncnc32)C1 [Compound 16, (R)-1-(3-(4-amino-3-(3-cyano-4-((3-fluorobenzyl)oxy)phenyl)-1H-pyrazolo[3,4-d]pyrimidin-1-yl)piperidin-1-yl)prop-2-en-1-one] | > 10000 | 28 | 51 | 52 | > 10000 | – | – | –
2 | C=CC(=O)N1CCC[C@@H](n2nc(-c3ccc(OCc4cccc(F)c4)nc3)c3c(N)ncnc32)C1 [Compound 19, (R)-1-(3-(4-amino-3-(6-((3-fluorobenzyl)oxy)pyridin-3-yl)-1H-pyrazolo[3,4-d]pyrimidin-1-yl)piperidin-1-yl)prop-2-en-1-one] | > 10000 | > 10000 | > 10000 | – | – | > 10000 | – | –
3 | C=CC(=O)N1CCC[C@@H](n2nc(-c3ccc(OCc4cc(F)ccc4F)c(Cl)c3)c3c(N)ncnc32)C1 [Compound 23, (R)-1-(3-(4-amino-3-(3-chloro-4-((2,5-difluorobenzyl)oxy)phenyl)-1H-pyrazolo[3,4-d]pyrimidin-1-yl)piperidin-1-yl)prop-2-en-1-one] | 4300 | < 0.3 | 7 | < 0.3 | – | 7 | 3800 | –
4 | C=CC(=O)N1CCC[C@@H](n2nc(-c3ccc(CN4CCN(C)CC4)cc3)c3c(N)ncnc32)C1 [Compound 20] | > 10000 | 4900 | 7000 | > 10000 | – | > 10000 | > 10000 | –
5 | C=CC(=O)N1CCC[C@@H](n2nc(-c3ccc(F)c(Cl)c3)c3c(N)ncnc32)C1 [Compound 31, (R)-1-(3-(4-amino-3-(3-chloro-4-flurophenyl)-1H-pyrazolo[3,4-d]pyrimidin-1-yl)piperidin-1-yl)prop-2-en-1-one] | > 10000 | 43 | 9 | 53 | 2200 | 95 | > 10000 | > 10000
6 | C=CC(=O)N1CCC[C@@H](n2nc(-c3ccc(OCc4cccc(F)c4)cc3F)c3c(N)ncnc32)C1 [Compound 24, (R)-1-(3-(4-amino-3-(2-fluoro-4-((3-fluorobenzyl)oxy)phenyl)-1H-pyrazolo[3,4-d]pyrimidin-1-yl)piperidin-1-yl)prop-2-en-1-one] | 1900 | < 0.3 | 6 | < 0.3 | – | 1600 | > 10000 | –
7 | C=CC(=O)N1CCC[C@@H](n2nc(-c3ccc(OCc4cccc(F)c4)c(C)c3)c3c(N)ncnc32)C1 [Compound 14, (R)-1-(3-(4-amino-3-(3-methyl-4-((3-fluorobenzyl)oxy)phenyl)-1H-pyrazolo[3,4-d]pyrimidin-1-yl)piperidin-1-yl)prop-2-en-1-one] | 2500 | 9 | 16 | < 0.3 | 1400 | 38 | – | –
8 | C=CC(=O)N1CCC[C@@H](n2nc(-c3ccc(OCc4ccccc4F)c(Cl)c3)c3c(N)ncnc32)C1 [Compound 18, (R)-1-(3-(4-amino-3-(3-chloro-4-((2-fluorobenzyl)oxy)phenyl)-1H-pyrazolo[3,4-d]pyrimidin-1-yl)piperidin-1-yl)prop-2-en-1-one] | 8500 | 20 | 14 | 1 | 4200 | – | – | –
9 | C=CC(=O)Nc1cc(Cn2nc(-c3ccc(F)c(Cl)c3)c3c(N)ncnc32)ccc1F [Compound 38] | 4600 | 3800 | 1700 | – | 6600 | 5100 | 2800 | 8700
